Results as given in ChEMBL document CHEMBL3875145, “Highly potent anti-leishmanial derivatives of hederagenin, a triperpenoid from Sapindus saponaria L” (Eur J Med Chem, 2016).

Tests used:
Leishmania infantum [1] = test: Antiparasitic activity against Leishmania infantum MHOM/BR/70/BH46 promastigotes infected in dog DH82 cells at 1000 uM after 48 hrs by ELISA method; format: functional; settings: MHOM/BR/70/BH46, DH82, 48 h
[2] = Selectivity index, ratio of LD50 for dog DH82 cells to IC50 for Leishmania infantum MHOM/BR/70/BH46 promastigotes infected in dog DH82 cells; format: toxicity, cell-based; settings: read-out: Ratio LD50/IC50
Leishmania infantum [3] = test: Antiparasitic activity against Leishmania infantum MHOM/BR/70/BH46 promastigotes infected in dog DH82 cells after 48 hrs by ELISA method; format: functional, cell-based; settings: MHOM/BR/70/BH46, DH82, 48 h
[4] = Cytotoxicity against dog DH82 cells assessed as decrease in cell viability after 48 hrs by MTT assay; format: toxicity, cell-based, Canis lupus familiaris; settings: read-out: LD50
[5] = Selectivity index, ratio of LD50 for African green monkey BGM cells to IC50 for Leishmania infantum MHOM/BR/70/BH46 promastigotes infected in dog DH82 cells; format: toxicity, cell-based; settings: read-out: Ratio LD50/IC50
[6] = Cytotoxicity against human HepG2 cells assessed as decrease in cell viability after 48 hrs by MTT assay; format: toxicity, cell-based; settings: read-out: LD50
[7] = Cytotoxicity against African green monkey BGM cells assessed as decrease in cell viability after 48 hrs by MTT assay; format: toxicity, cell-based; settings: chlorocebus aethiops, read-out: LD50
[8] = Selectivity index, ratio of LD50 for human HepG2 cells to IC50 for Leishmania infantum MHOM/BR/70/BH46 promastigotes infected in dog DH82 cells; format: toxicity, cell-based; settings: read-out: Ratio LD50/IC50

SMILES | inhibition at 1000 µM (Leishmania infantum [1]) [%] | selectivity ratio [2] | IC50 (Leishmania infantum [3]) [µM] | CC50 at 48 h [4] [µM] | selectivity ratio [5] | CC50 at 48 h [6] [µM] | CC50 at 48 h [7] [µM] | selectivity ratio [8]
CC1(C)CC[C@]2(C(=O)OCc3c(F)cccc3F)CC[C@]3(C)C(=CC[C@@H]4[C@@]5(C)CC[C@H](O)[C@@](C)(CO)[C@@H]5CC[C@]43C)[C@@H]2C1 | 25.2 | – | – | – | – | – | – | –
CC1(C)CC[C@]2(C(=O)OCc3c(Cl)cccc3Cl)CC[C@]3(C)C(=CC[C@@H]4[C@@]5(C)CC[C@H](O)[C@@](C)(CO)[C@@H]5CC[C@]43C)[C@@H]2C1 | 53 | 0.6 | 307 | 202 | – | – | – | –
Cc1cccc(COC(=O)[C@]23CCC(C)(C)C[C@H]2C2=CC[C@@H]4[C@@]5(C)CC[C@H](O)[C@@](C)(CO)[C@@H]5CC[C@@]4(C)[C@]2(C)CC3)c1 | 66 | – | – | – | – | – | – | –
CC1(C)CC[C@]2(C(=O)OCc3cccc([N+](=O)[O-])c3)CC[C@]3(C)C(=CC[C@@H]4[C@@]5(C)CC[C@H](O)[C@@](C)(CO)[C@@H]5CC[C@]43C)[C@@H]2C1 | 60.5 | 6.4 | 9.7 | 63 | 32 | 70 | 314 | 5.2
COc1cc(COC(=O)[C@]23CCC(C)(C)C[C@H]2C2=CC[C@@H]4[C@@]5(C)CC[C@H](O)[C@@](C)(CO)[C@@H]5CC[C@@]4(C)[C@]2(C)CC3)cc(OC)c1 | 89 | – | 110 | – | – | – | – | –
Cc1ccc(COC(=O)[C@]23CCC(C)(C)C[C@H]2C2=CC[C@@H]4[C@@]5(C)CC[C@H](O)[C@@](C)(CO)[C@@H]5CC[C@@]4(C)[C@]2(C)CC3)cc1 | 44 | – | – | – | – | – | – | –
CC1(C)CC[C@]2(C(=O)OCc3ccc(F)cc3)CC[C@]3(C)C(=CC[C@@H]4[C@@]5(C)CC[C@H](O)[C@@](C)(CO)[C@@H]5CC[C@]43C)[C@@H]2C1 | 57 | – | – | – | – | – | – | –
CC1(C)CC[C@]2(C(=O)OCc3ccc(Br)cc3)CC[C@]3(C)C(=CC[C@@H]4[C@@]5(C)CC[C@H](O)[C@@](C)(CO)[C@@H]5CC[C@]43C)[C@@H]2C1 | 64.5 | 6.9 | 12 | 83 | 10 | 260 | 116 | 21.6
CC1(C)CC[C@]2(C(=O)NCc3ccccc3)CC[C@]3(C)C(=CC[C@@H]4[C@@]5(C)CC[C@H](O)[C@@](C)(CO)[C@@H]5CC[C@]43C)[C@@H]2C1 | 8.2 | – | – | – | – | – | – | –
C#CCNC(=O)[C@]12CCC(C)(C)C[C@H]1C1=CC[C@@H]3[C@@]4(C)CC[C@H](O)[C@@](C)(CO)[C@@H]4CC[C@@]3(C)[C@]1(C)CC2 | 15 | – | – | – | – | – | – | –
CC1(C)CC[C@]2(C(=O)OCc3cn(Cc4cccc(Br)c4)nn3)CC[C@]3(C)C(=CC[C@@H]4[C@@]5(C)CC[C@H](O)[C@@](C)(CO)[C@@H]5CC[C@]43C)[C@@H]2C1 | 70.5 | 0.5 | 38 | 21 | 2 | 19 | 78 | 0.5
CC1(C)CC[C@]2(C(=O)OCc3cn(Cc4ccc(F)cc4F)nn3)CC[C@]3(C)C(=CC[C@@H]4[C@@]5(C)CC[C@H](O)[C@@](C)(CO)[C@@H]5CC[C@]43C)[C@@H]2C1 | 87.7 | 6 | 11 | 66 | 4.9 | > 1000 | 158 | > 31.2
CC1(C)CC[C@]2(C(=O)NCc3cn(Cc4ccc(Cl)cc4)nn3)CC[C@]3(C)C(=CC[C@@H]4[C@@]5(C)CC[C@H](O)[C@@](C)(CO)[C@@H]5CC[C@]43C)[C@@H]2C1 | 85.4 | 2.6 | 6 | 16 | 8.3 | 2.5 | 50 | 0.4
CC1(C)CC[C@]2(C(=O)NCc3cn(Cc4c(Cl)cccc4Cl)nn3)CC[C@]3(C)C(=CC[C@@H]4[C@@]5(C)CC[C@H](O)[C@@](C)(CO)[C@@H]5CC[C@]43C)[C@@H]2C1 | 41.7 | – | – | – | – | – | – | –
CC1(C)CC[C@]2(C(=O)OCc3cn(Cc4ccccc4F)nn3)CC[C@]3(C)C(=CC[C@@H]4[C@@]5(C)CC[C@H](O)[C@@](C)(CO)[C@@H]5CC[C@]43C)[C@@H]2C1 | 48.3 | – | – | – | – | – | – | –
CC1(C)CC[C@]2(C(=O)NCc3cn(Cc4ccc(F)cc4F)nn3)CC[C@]3(C)C(=CC[C@@H]4[C@@]5(C)CC[C@H](O)[C@@](C)(CO)[C@@H]5CC[C@]43C)[C@@H]2C1 | 41.8 | – | – | – | – | – | – | –
CC1(C)CC[C@]2(C(=O)NCc3cn(Cc4ccccc4[N+](=O)[O-])nn3)CC[C@]3(C)C(=CC[C@@H]4[C@@]5(C)CC[C@H](O)[C@@](C)(CO)[C@@H]5CC[C@]43C)[C@@H]2C1 | 93 | 22.5 | 2 | 45 | 55.5 | > 1000 | 111 | > 500
CC1(C)CC[C@]2(C(=O)NCc3cn(Cc4ccccc4Cl)nn3)CC[C@]3(C)C(=CC[C@@H]4[C@@]5(C)CC[C@H](O)[C@@](C)(CO)[C@@H]5CC[C@]43C)[C@@H]2C1 | 0 | – | – | – | – | – | – | –
CC1(C)CC[C@]2(C(=O)OCc3cn(Cc4ccccc4Br)nn3)CC[C@]3(C)C(=CC[C@@H]4[C@@]5(C)CC[C@H](O)[C@@](C)(CO)[C@@H]5CC[C@]43C)[C@@H]2C1 | 34.6 | – | – | – | – | – | – | –
CC1(C)CC[C@]2(C(=O)NCc3cn(Cc4c(F)cccc4F)nn3)CC[C@]3(C)C(=CC[C@@H]4[C@@]5(C)CC[C@H](O)[C@@](C)(CO)[C@@H]5CC[C@]43C)[C@@H]2C1 | 45 | – | – | – | – | – | – | –
CC1(C)CC[C@]2(C(=O)OCc3cn(Cc4cccc(Cl)c4)nn3)CC[C@]3(C)C(=CC[C@@H]4[C@@]5(C)CC[C@H](O)[C@@](C)(CO)[C@@H]5CC[C@]43C)[C@@H]2C1 | 51.3 | – | – | – | – | – | – | –
CC1(C)CC[C@]2(C(=O)NCc3cn(Cc4ccccc4Br)nn3)CC[C@]3(C)C(=CC[C@@H]4[C@@]5(C)CC[C@H](O)[C@@](C)(CO)[C@@H]5CC[C@]43C)[C@@H]2C1 | 4.2 | – | – | – | – | – | – | –
CC1(C)CC[C@]2(C(=O)OCc3cn(Cc4ccc(F)cc4)nn3)CC[C@]3(C)C(=CC[C@@H]4[C@@]5(C)CC[C@H](O)[C@@](C)(CO)[C@@H]5CC[C@]43C)[C@@H]2C1 | 33.3 | – | – | – | – | – | – | –
CC1(C)CC[C@]2(C(=O)OCc3cn(Cc4ccccc4[N+](=O)[O-])nn3)CC[C@]3(C)C(=CC[C@@H]4[C@@]5(C)CC[C@H](O)[C@@](C)(CO)[C@@H]5CC[C@]43C)[C@@H]2C1 | 51 | 6.6 | 32 | 212 | 1.3 | 57 | 15 | 5.1
COC(=O)CNC(=O)[C@]12CCC(C)(C)C[C@H]1C1=CC[C@@H]3[C@@]4(C)CC[C@H](O)[C@@](C)(CO)[C@@H]4CC[C@@]3(C)[C@]1(C)CC2 | 79.5 | 1.8 | 18 | 32.5 | 1 | 60.6 | 20 | 3.5
CC1(C)CC[C@]2(C(=O)O)CC[C@]3(C)C(=CC[C@@H]4[C@@]5(C)CC[C@H](O)[C@@](C)(CO)[C@@H]5CC[C@]43C)[C@@H]2C1 [HEDERAGENIN] | 55.5 | 10 | 61.6 | < 1000 | 0.9 | < 1000 | 57 | 16.2
